{"source": "paper PMC11490619", "about": "“Discovery of Trypanosoma brucei inhibitors enabled by a unified synthesis of diverse sulfonyl fluorides” (Communications Chemistry, 2024)", "key": {"[1]": {"tested_on": "T1, Trypanosoma brucei brucei bloodstream forms", "T1 construct": "427 single marker, bloodstream form", "test": "microbe, parasite or virus in culture", "design": "Resazurin viability of bloodstream form parasites, fluorescence 560/590 nm, dose-response, initial screen n = 1", "conditions": "initial screen, n = 1, 0.5% DMSO", "experimental": "Cell viability assays were carried out in 96 well plates with 200 µL of culture per well as described previously. For this study we used bloodstream forms (BSF) of Trypanosoma brucei brucei strain 427 single marker. Axenic cultures of parasites were maintained at the logarithmic phase of cell proliferation (density below 2 ×10^6 parasites/mL) by successive passages in HMI-11 media supplemented with 10% heat inactivated foetal calf serum and 2.5 mg/L geneticin (Ge418) at 37°C under an atmosphere of 5% CO2. Parasites were seeded at 5 ×10^3 cells/mL and incubated with drug for 66 hours. The plate included wells containing the positive control pentamidine (100 nM) and the negative control of 0.5% DMSO. After 66 hours, 10 µL of 1.1 mg/mL Resazurin sodium salt was added in PBS and incubated for a further 6 hours. Plates were then read on a plate reader using excitation/emission 560/590 nm. EC50 values and errors were calculated using a sigmoidal dose response fitting algorithm. The initial screen was performed at n = 1 with follow-up screen of hits n = 4 technical replicates. The set of diverse sulfonyl fluoride probes was screened against Trypanosoma brucei brucei bloodstream forms in 96-well plate format (final concentrations: 0.1–100 μM in 0.5% dimethyl sulfoxide (DMSO); n = 1) (Fig. 3b). […]"}, "[2]": {"biological_target": "T2, prolyl endo-/oligo-peptidase S9 (Q38AG2) (Trypanosoma brucei, UniProt Q38AG2)", "T2 construct": "gene Tb10.6k15.2520; native protein in parasite lysate", "T2 sequence (Q38AG2 entry or part of it, one chain of several)": "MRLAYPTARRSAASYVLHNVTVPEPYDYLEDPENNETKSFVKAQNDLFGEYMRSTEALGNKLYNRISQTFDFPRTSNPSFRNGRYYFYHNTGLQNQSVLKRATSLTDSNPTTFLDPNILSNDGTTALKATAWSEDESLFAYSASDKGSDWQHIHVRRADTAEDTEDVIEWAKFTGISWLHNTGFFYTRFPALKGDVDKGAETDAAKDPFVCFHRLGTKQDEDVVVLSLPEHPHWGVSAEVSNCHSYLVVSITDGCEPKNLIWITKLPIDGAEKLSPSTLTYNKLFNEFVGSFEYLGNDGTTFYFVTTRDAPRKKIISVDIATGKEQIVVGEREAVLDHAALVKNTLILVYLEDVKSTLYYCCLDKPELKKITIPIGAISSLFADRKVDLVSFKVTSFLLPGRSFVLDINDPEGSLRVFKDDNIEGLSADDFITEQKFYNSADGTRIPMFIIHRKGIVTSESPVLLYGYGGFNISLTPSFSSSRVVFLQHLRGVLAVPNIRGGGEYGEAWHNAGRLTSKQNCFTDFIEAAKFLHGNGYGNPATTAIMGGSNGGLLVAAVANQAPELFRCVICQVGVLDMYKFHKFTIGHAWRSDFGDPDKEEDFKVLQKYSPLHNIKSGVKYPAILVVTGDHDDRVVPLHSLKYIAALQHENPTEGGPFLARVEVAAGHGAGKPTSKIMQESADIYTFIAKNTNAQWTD", "test": "C-1alk click biotin pulldown, LFQ LC-MS/MS", "assay_type": "biochemical", "conditions": "covalent; labelled compound; parasite lysate; 1.5 uM C-1alk, 1 h, 25 C"}, "[3]": {"biological_target": "T3, lyso-phospholipase (D6XM23) (Trypanosoma brucei, UniProt D6XM23)", "T3 construct": "gene Tb08.11J15.160; native protein in parasite lysate, about 30 kDa", "T3 sequence (D6XM23 entry or part of it)": "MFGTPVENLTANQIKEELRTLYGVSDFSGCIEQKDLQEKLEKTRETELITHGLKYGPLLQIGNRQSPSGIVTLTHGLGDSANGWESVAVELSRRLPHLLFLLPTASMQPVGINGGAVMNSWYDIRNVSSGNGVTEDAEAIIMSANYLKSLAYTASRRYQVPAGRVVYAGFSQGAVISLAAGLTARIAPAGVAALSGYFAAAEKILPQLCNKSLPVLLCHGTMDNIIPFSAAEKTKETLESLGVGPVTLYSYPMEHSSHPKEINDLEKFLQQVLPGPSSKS", "test": "C-1alk click biotin pulldown, LFQ LC-MS/MS", "assay_type": "biochemical", "conditions": "covalent; labelled compound; parasite lysate; 1.5 uM C-1alk, 1 h, 25 C"}, "[4]": {"biological_target": "T4, T. brucei glycerol kinase (Q38DF0) (Trypanosoma brucei, UniProt Q38DF0)", "T4 construct": "gene Tb09.211.3570; native protein in parasite lysate", "T4 sequence (Q38DF0 entry or part of it)": "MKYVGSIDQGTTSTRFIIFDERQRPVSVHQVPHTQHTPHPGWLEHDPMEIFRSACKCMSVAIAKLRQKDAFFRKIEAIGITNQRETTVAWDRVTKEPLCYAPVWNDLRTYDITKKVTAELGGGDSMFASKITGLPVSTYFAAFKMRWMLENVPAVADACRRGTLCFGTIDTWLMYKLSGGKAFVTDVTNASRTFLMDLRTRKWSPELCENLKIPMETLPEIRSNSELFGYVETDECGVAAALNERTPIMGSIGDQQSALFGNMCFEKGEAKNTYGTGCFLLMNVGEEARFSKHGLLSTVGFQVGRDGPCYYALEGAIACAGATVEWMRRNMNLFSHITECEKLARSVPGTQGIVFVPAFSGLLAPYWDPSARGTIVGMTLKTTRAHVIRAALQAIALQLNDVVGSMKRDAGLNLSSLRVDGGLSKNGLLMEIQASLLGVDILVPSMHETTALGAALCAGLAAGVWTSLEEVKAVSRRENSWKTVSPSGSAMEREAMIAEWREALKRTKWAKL", "test": "modified-peptide LC-MS/MS after click to cleavable biotin-azide", "assay_type": "binding", "conditions": "covalent; labelled compound; parasite lysate; site S137, T138 or Y139"}}}
{"compound": "CC(C)(C)OC(=O)N1CCCC1c1ccc(S(=O)(=O)F)cn1", "note": "(stereo not shown) [C-1]", "values": [{"measurement": "EC50", "setting": "[1]", "value": 330, "unit": "nM"}]}
{"compound": "C#CCOC(=O)N1CCCC1c1ccc(S(=O)(=O)F)cn1", "note": "(stereo not shown) [C-1alk]", "values": [{"measurement": "C-1alk click biotin pulldown, LFQ LC-MS/MS", "setting": "[2]", "value": "prolyl endo-/oligo-peptidase S9 (Q38AG2), which had been previously enriched with our C-1alk probe"}, {"measurement": "C-1alk click biotin pulldown, LFQ LC-MS/MS", "setting": "[3]", "value": "Lyso-phospholipase emerged as the sole common hit labelled by both C-1alk and FP-biotin"}, {"measurement": "modified-peptide LC-MS/MS after click to cleavable biotin-azide", "setting": "[4]", "value": "identify peptides matching the expected mass shift for T. brucei glycerol kinase (Q38DF0)"}]}
